Measured values from article PMC8399847, “Hybrid Quinolinyl Phosphonates as Heterocyclic Carboxylate Isosteres: Synthesis and Biological Evaluation against Topoisomerase 1B (TOP1B)” (Pharmaceuticals, 2021).

System: leishmanial TOP1B (LTOP1B)
Assay: LTOP1B relaxation activity assay
Assay type: biochemical, Leishmania
Conditions: 100 µM of compound, 1 min
Description: The inhibition of relaxation activity of LTOP1B by the compounds was tested at 100 µM. The reactions were performed for 1 min in the way described in the experimental protocols section. The percentage of inhibition was calculated by measuring the intensity of the band corresponding to the supercoiled DNA when the different DNA topoisomers were separated in an agarose gel.
Purification of leishmanial DNA topoisomerase 1B (LTOP1B) was carried out as reported previously. Shortly, LTOP1B was purified using the deficient in TOP1 activity yeast strain, EKY3 MAT α ura3–52 his3Δ20ting, from the union of the bicistronic expression vector pESC-URA to both subunits of LTOP1B. The yeast cells were grown in a yeast synthetic drop-out medium without uracil (Sigma) supplemented with 2% raffinose (w/v) to OD600: 0.8–1 and induced for 10 h with 2% galactose (w/v). After that, the cells were harvested, washed with cold TEEG buffer (50 mM Tris–HCl pH 7.4, 1 mM EDTA, 1 mM EGTA, 10% glycerol), resuspended in 15 mL of 1× TEEG buffer supplemented with 0.2 M KCl and a protease inhibitors cocktail (Thermo Scientific, Waltham, MA, USA) and lysed. Protein extract obtained was loaded on a 5 mL Heparin Sepharose column (GE Healthcare, MA, USA). LTOP1B enzyme was eluted at 4 °C with a discontinuous gradient of KCl (0.2, 0.4, 0.6 M) in TEEG buffer.
Leishmanial TOP1B activity was tested by the relaxation of supercoiled plasmid DNA assay. Each reaction contained: one unit of purified LTOP1B enzyme, 100 µM of each compound, 0.5 μg of supercoiled pSK DNA, 10 mM Tris-HCl buffer pH 7.5, 5 mM MgCl2, 0.1 mM EDTA, 15 µg/mL bovine serum albumin, and 150 mM KCl. The final volume of each reaction was 20 µL. Reaction mixtures were incubated for 1 min at 37 °C and stopped by the addition of a 4 µL loading buffer (5% sarkosyl, 0.12% bromophenol blue, 25% glycerol). The DNA topoisomers were resolved in 1% agarose gels by electrophoresis in 0.1 M Tris borate EDTA buffer (pH 8.0) at 2 V/cm for 16 h and visualized with UV illumination after ethidium bromide (0.5 μg/mL) staining. The percentage of inhibition was calculated by measuring the intensity of the band corresponding to the supercoiled DNA after separating and staining the different DNA topoisomers. This analysis was performed using the GeneTools from Syngene software (Version 4.3.8, MD, USA).

Row | SMILES | LTOP1B Inhibition [%]
1 | CCOP(=O)(OCC)c1ccc2nc(-c3ccc(F)cc3)cc(-c3ccccc3)c2c1 [7r, Diethyl (2-(4-fluorophenyl)-4-phenylquinolin-6-yl)phosphonate] | 1.94
2 | CC(C)OP(=O)(OC(C)C)c1cccc2c(-c3ccc(F)cc3)cc(-c3ccc(F)cc3)nc12 [7n, Diisopropyl (2,4-bis(4-fluorophenyl)quinolin-8-yl)phosphonate] | 43.31
3 | CCOP(=O)(OCC)c1ccc2nc(-c3ccc(F)cc3)cc(-c3ccc(F)cc3)c2c1 [7t, Diethyl (2,4-bis(4-fluorophenyl)quinolin-6-yl)phosphonate] | 37.86
4 | CC(C)OP(=O)(OC(C)C)c1cccc2c(-c3ccccc3)cc(-c3ccc(F)c(F)c3)nc12 [7m, Diisopropyl (2-(3,4-difluorophenyl)-4-phenylquinolin-8-yl)phosphonate] | 5.41
5 | CCOP(=O)(OCC)c1cccc2c(-c3ccccc3)cc(-c3ccc(F)cc3)nc12 [7b, Diethyl (4-Phenyl-2-(fluorophenyl)quinolin-8-il) phosphonate] | 24.43
6 | CCOP(=O)(OCC)c1cccc2c(-c3ccc(C)cc3)cc(-c3ccc(F)c(F)c3)nc12 [7k, Diethyl (2-(3,4-difluorophenyl)-4-(p-tolyl)quinolin-8-yl)phosphonate] | 77.02
7 | Cc1ccc(-c2cc(-c3ccc(F)cc3)nc3c(P(=O)(OC(C)C)OC(C)C)cccc23)cc1 [7p, Diisopropyl (2-(4-fluorophenyl)-4-(p-tolyl)quinolin-8-yl)phosphonate] | 41.62
8 | CCOP(=O)(OCC)c1cccc2c(-c3ccc(F)cc3)cc(-c3ccccc3)nc12 [7g] | 16.49
9 | CC(C)OP(=O)(OC(C)C)c1cccc2c(-c3ccc(F)cc3)cc(-c3ccc(F)c(F)c3)nc12 [7o, Diisopropyl (2-(3,4-difluorophenyl)-4-(4-fluorophenyl)quinolin-8-yl)phosphonate] | 73.27
10 | CC(C)OP(=O)(OC(C)C)c1cccc2c(-c3ccccc3)cc(-c3ccc(F)cc3)nc12 [7l, Diisopropyl (2-(4-fluorophenyl)-4-phenylquinolin-8-yl)phosphonate] | 3.55
11 | CCOP(=O)(OCC)c1ccc2nc(-c3ccc(F)c(F)c3)cc(-c3ccc(F)cc3)c2c1 [7u, Diethyl (2-(3,4-difluorophenyl)-4-(4-fluorophenyl)quinolin-6-yl)phosphonate] | 50.24
12 | CCOP(=O)(OCC)c1ccc2nc(-c3ccc(F)c(F)c3)cc(-c3ccccc3)c2c1 [7s, Diethyl (2-(3,4-difluorophenyl)-4-phenylquinolin-6-yl)phosphonate] | 14.56
13 | CCOP(=O)(OCC)c1cccc2c(-c3ccc(F)cc3)cc(-c3ccc(F)cc3)nc12 [7h, Diethyl (2,4-bis(4-fluorophenyl)quinolin-8-yl)phosphonate] | 22.44
14 | CCOP(=O)(OCC)c1cccc2c(-c3ccccc3)cc(-c3ccc(OC)cc3)nc12 [7c, Diethyl (2-(4-methoxyphenyl)-4-phenylquinolin-8-yl)phosphonate] | 45.45
15 | CCOP(=O)(OCC)c1cccc2c(-c3ccccc3)cc(-c3ccc4ccccc4c3)nc12 [7e, Diethyl (2-(naphthalen-2-yl)-4-phenylquinolin-8-yl)phosphonate] | 18.36
16 | CCOP(=O)(OCC)c1cccc2c(-c3ccccc3)cc(-c3ccccc3OC)nc12 [7d, Diethyl (2-(2-methoxyphenyl)-4-phenylquinolin-8-yl)phosphonate] | 46.41
17 | CCOP(=O)(OCC)c1ccc2nc(-c3ccc(F)c(F)c3)cc(-c3ccc(C)cc3)c2c1 [7x, Diethyl (2-(3,4-difluorophenyl)-4-(p-tolyl)quinolin-6-yl)phosphonate] | 43.84
18 | CCOP(=O)(OCC)c1cccc2c(-c3ccccc3)cc(-c3ccccc3)nc12 [7a, Diethyl (2,4-diphenylquinolin-8-yl)phosphonate] | 58.87
19 | CCOP(=O)(OCC)c1ccc2nc(-c3ccc(F)cc3)cc(-c3ccc(C)cc3)c2c1 [7v, Diethyl (2-(4-fluorophenyl)-4-(p-tolyl)quinolin-6-yl)phosphonate] | 43.25
20 | CCOP(=O)(OCC)c1cccc2c(-c3ccccc3)cc(-c3cccc4ccccc34)nc12 [7f, Diethyl (2-(naphthalen-1-yl)-4-phenylquinolin-8-yl)phosphonate] | 7.5
21 | Cc1ccc(-c2cc(-c3ccc(F)c(F)c3)nc3c(P(=O)(OC(C)C)OC(C)C)cccc23)cc1 [7q, Diisopropyl (2-(3,4-difluorophenyl)-4-(p-tolyl)quinolin-8-yl)phosphonate] | 52.65
22 | CCOP(=O)(OCC)c1cccc2c(-c3ccc(C)cc3)cc(-c3ccc(F)cc3)nc12 [7j, Diethyl (2-(4-fluorophenyl)-4-(p-tolyl)quinolin-8-yl)phosphonate] | 41.21
23 | CCOP(=O)(OCC)c1cccc2c(-c3ccc(F)cc3)cc(-c3ccc(F)c(F)c3)nc12 [7i, Diethyl (2-(3,4-difluorophenyl)-4-(4-fluorophenyl)quinolin-8-yl)phosphonate] | 54.01
